The numbers were not newly measured in patent US20220305028A1, “METHOD FOR PREPARING A LIPOSOMAL COMPOSITION COMPRISING LATANOPROST, AND THE PHARMACOLOGICALLY ACTIVE LIPOSOMAL COMPOSITION FOR OPHTHALMOTHERAPY PREPARED BY THIS METHOD” (CONSORTIUM "UKRINDUSTRY", priority 2021, published 2022), which cites them from elsewhere.

The conditions of the series: aqueous ophthalmic drops.

As for `CC(C)OC(=O)CCC/C=C\C[C@@H]1[C@@H](CC[C@@H](O)CCc2ccccc2)[C@H](O)C[C@@H]1O` [latanoprost, Latanoprost], the “penetration of the latanoprost from the drops through a corneal epithelium” value is recorded as “not more than 5 % of the administered amount”.
